The values below come from patent US7605175B2, “Inhibitors of cyclin-dependent kinases, compositions and uses related thereto” (GPC Biotech AG, priority 2001, dated 2009).

Common to all, as to details: Table 6
In one assay the target is T1, Cdk4/cyclin D1 (Homo sapiens, UniProt P11802).
T1 construct: made in house; host or cells: Sf9 insect cells
In words: Biochemical kinase assay Cdk4/cyclin D1. The text has this:
(§1) Enzymes: Cdc2/cyclin B was obtained from commercial sources. Cdk2/his-cyclin Eshort was expressed in Sf9 cells. Cdk2/cyclin A, cdk4/cyclin D1, and cdk6/cyclin D2 were expressed in Sf9 cells. Protein kinase A (catalytic subunit, from bovine heart) and protein kinase C (mixed isozymes from rat brain) were obtained from commercial sources.
(§2) Substrates: Histone H1 was from commercial sources. GST-Rb is glutathione-S-trans-ferase fused to the N-terminal of residues 379-928 of the Rb protein.
(§3) Cdk2/cyclin E, Cdk2/cyclin A, Cdk4/cyclin D1, and Cdk6/cyclin D2 activity was determined using a glutathione-sepharose capture assay. The enzymes were expressed in Sf9 insect cells as heterodimers, and the substrate (GST-Rb) was glutathione-S-transferase fused to residues 379 to 928 of Rb retinoblastoma protein, expressed in E. coli. The assay solution contained 50 mM Tris.HCl, 10 mM MgCl2, 1 mM dithiothreitol, 50 μM adenosine triphosphate, 2 μCi [γ-^33P]adenosine triphosphate, 10% dimethylsulfoxide (from compounds), pH 7.5, 40 μg GST-Rb, and enzyme in a 100 μL volume. Compounds were added at various concentrations between 1 nM and 10 μM. The reaction was allowed to proceed for 15 min at 30° C. and was stopped by the addition of 70 μL of stop solution (237 mM disodium ethylene-diamine tetraacetate, 105 mM adenosine triphosphate, pH 8.0). The GST-Rb was captured by binding to glutathione-sepharose bead (Amersham) for 110 min, and the suspension was filtered through a glass fiber filter. After washing the retained beads five time with phosphate-buffered saline containing 0.3% (w/v) Tween-20, the amount of ^33P incorporated was determined by scintillation counting after adding 100 μL scintillant. Relative activity was determined by dividing the amount of radioactivity incorporated in the presence of compound by the amount of radioactivity incorporated in a control experiment containing DMSO alone but no compound. The background radioactivity, determined in an experiment containing 50 mM disodium ethylenediamine tetraacetate in place of compound, was subtracted from all results before calculations.

In the next assay the target is T2, Cdc2/cyclin B (Homo sapiens, UniProt P06493).
T2 construct: purchased
In words: Biochemical kinase assay Cdc2/cyclin B.
Excerpt: as §1, §2
Assays: Cdc2/cyclinB activity was determined by measuring incorporation of radio-activity from adenosine [γ-^32P]triphosphate into Histone H1 using a TCA precipitation assay. Cdc2/cyclin B kinase and Histone H1 were obtained from commercial sources. The final assay solution contained 50 mM Tris.HCl, 10 mM MgCl2, 1 mM dithiothreitol, 50 μM adenosine triphosphate, 2 μCi ^32P, 10% dimethylsulfoxide (from compounds), pH 7.5, 20 μg Histone H1, 6 U enzyme in a 50 μL volume. Compounds were added at various concentrations between 1 nM and 10 μM. The reaction was started with the addition of enzyme, allowed to proceed for 20 min at 30° C., and stopped by the addition of 20 μL of stop solution (237 mM disodium ethylenediamine tetraacetate, 105 mM adenosine triphosphate, pH 8.0). The protein was precipitated by the addition of 35 μL 70% (w/v) trichloroacetic acid, and the precipitate was captured on a 96-well glass fiber filter plate (Millipore, Inc.), which had been wet with 25% (w/v) trichloroacetic acid. The filter was washed ten times with 25% (w/v) trichloroacetic acid, and the amount of incorporated ^32P was determined by scintillation counting after adding 100 μL scintillant (Microscint 20, Packard Instruments). Relative activity was determined by dividing the amount of radioactivity incorporated in the presence of compound by the amount of radioactivity incorporated in a control experiment containing DMSO alone but no compound. The background radioactivity, determined in an experiment containing 50 mM EDTA in place of compound, was subtracted from all results before calculations.

For the next assay, the target named is T3, Cdk2/cyclin E (Homo sapiens, UniProt P24941).
T3 construct: made in house; host or cells: Sf9 insect cells
In words: Biochemical kinase assay Cdk2/cyclin E.
Excerpt: as §1, §2, §3

T1 sequence (P11802 whole entry, species assumed): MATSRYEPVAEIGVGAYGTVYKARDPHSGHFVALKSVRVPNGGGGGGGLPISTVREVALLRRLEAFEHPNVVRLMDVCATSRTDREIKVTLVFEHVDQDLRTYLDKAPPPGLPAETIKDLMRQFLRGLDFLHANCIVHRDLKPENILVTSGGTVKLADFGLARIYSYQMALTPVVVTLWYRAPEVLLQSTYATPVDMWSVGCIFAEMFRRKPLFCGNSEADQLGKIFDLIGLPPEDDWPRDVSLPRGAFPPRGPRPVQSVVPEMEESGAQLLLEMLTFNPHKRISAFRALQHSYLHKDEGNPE
T1 sequence (P24385 whole entry partner, species assumed): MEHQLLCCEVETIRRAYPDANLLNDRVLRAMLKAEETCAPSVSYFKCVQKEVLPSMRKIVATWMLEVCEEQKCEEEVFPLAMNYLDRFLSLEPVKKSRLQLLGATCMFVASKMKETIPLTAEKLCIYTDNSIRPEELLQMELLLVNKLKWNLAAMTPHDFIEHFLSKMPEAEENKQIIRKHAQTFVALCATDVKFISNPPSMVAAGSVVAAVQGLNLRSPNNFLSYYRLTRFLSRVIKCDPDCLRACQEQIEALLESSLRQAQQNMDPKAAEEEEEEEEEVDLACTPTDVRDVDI
T2 sequence (P06493 whole entry, species assumed): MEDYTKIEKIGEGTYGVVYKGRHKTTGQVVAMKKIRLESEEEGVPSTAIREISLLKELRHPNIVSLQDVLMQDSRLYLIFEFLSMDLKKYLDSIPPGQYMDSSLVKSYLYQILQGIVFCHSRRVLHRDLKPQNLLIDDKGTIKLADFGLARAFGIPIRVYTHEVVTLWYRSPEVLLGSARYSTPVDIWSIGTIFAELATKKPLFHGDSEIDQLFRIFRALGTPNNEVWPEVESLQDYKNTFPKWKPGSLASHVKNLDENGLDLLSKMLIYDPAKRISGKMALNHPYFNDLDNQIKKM
T2 sequence (P14635 whole entry partner, species assumed): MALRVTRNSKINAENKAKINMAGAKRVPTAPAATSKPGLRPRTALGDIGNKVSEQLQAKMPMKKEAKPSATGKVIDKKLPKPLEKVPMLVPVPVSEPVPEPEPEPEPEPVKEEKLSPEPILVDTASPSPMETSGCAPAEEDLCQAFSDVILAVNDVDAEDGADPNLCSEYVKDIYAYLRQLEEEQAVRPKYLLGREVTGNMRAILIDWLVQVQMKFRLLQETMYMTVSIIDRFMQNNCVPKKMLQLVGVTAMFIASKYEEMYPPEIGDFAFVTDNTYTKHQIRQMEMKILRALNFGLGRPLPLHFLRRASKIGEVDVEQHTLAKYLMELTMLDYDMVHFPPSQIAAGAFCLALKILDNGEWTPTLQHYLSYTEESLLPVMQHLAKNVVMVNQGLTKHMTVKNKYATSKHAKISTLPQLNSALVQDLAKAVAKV

The IC50 is the midpoint of a concentration-inhibition curve. High values mean weaker potency in that assay, low ones greater potency in that assay. In the case of `O=C(Nc1cccc2c1C(=O)c1c-2n[nH]c1-c1ccc(OCCN2CCOCC2)cc1)NN1CCOCC1` [Compound A3], the IC50 against Cdk4/cyclin D1, at Cdc2/cyclin B and against Cdk2/cyclin E was under 100 nM each time.

Turning to `Cc1cc(OCCN2CCOCC2)ccc1-c1[nH]nc2c1C(=O)c1c(NC(=O)NN3CCN(C)CC3)cccc1-2` [Compound A7], the IC50 against Cdk4/cyclin D1, on Cdc2/cyclin B and against Cdk2/cyclin E was under 100 nM each time.

With `Cc1cc(OCCN2CCCCC2)ccc1-c1[nH]nc2c1C(=O)c1c(NC(=O)NN3CCN(C)CC3)cccc1-2` [Compound A8], the IC50 against Cdk4/cyclin D1, at Cdc2/cyclin B and at Cdk2/cyclin E was under 100 nM throughout.

Turning to `Cc1cc(OCCN2CCCN(C)CC2)ccc1-c1[nH]nc2c1C(=O)c1c(NC(=O)NN3CCN(C)CC3)cccc1-2` [Compound A9], the figures for the IC50 on Cdk4/cyclin D1, against Cdc2/cyclin B and against Cdk2/cyclin E were under 100 nM, under 10 nM and under 100 nM, respectively.

On to `O=C(Nc1cccc2c1C(=O)c1c-2n[nH]c1-c1ccc(O)c(CN2CCOCC2)c1)NN1CCOCC1` [Compound A10], for which the figures for the IC50 against Cdk4/cyclin D1, against Cdc2/cyclin B and on Cdk2/cyclin E were under 1000 nM, under 10 nM and under 100 nM, respectively.

In the case of `Cc1cc(OCCn2cccn2)ccc1-c1[nH]nc2c1C(=O)c1c(NC(=O)NN3CCN(C)CC3)cccc1-2` [Compound A11], the IC50 on Cdk4/cyclin D1, against Cdc2/cyclin B and at Cdk2/cyclin E was under 100 nM each time.

Regarding `CN1CCN(NC(=O)Nc2cccc3c2C(=O)c2c(-c4ccc(OCCN5CCCC5)cc4F)n[nH]c2-3)CC1` [Compound A12], the IC50 at Cdk4/cyclin D1, on Cdc2/cyclin B and against Cdk2/cyclin E was under 100 nM throughout.

Consider `CN1CCN(CCOc2ccc(-c3n[nH]c4c3C(=O)c3c(NC(=O)NN5CCN(C)CC5)cccc3-4)c(F)c2)CC1` [Compound A13], for which the IC50 against Cdk4/cyclin D1, against Cdc2/cyclin B and against Cdk2/cyclin E was under 100 nM throughout.

On to `CN1CCN(NC(=O)Nc2cccc3c2C(=O)c2c(-c4ccc(OCCN5CCCC5)c(F)c4)n[nH]c2-3)CC1` [Compound A14], for which the IC50 against Cdk4/cyclin D1, on Cdc2/cyclin B and on Cdk2/cyclin E was under 100 nM in each case.

Take `CN1CCN(NC(=O)Nc2cccc3c2C(=O)c2c-3n[nH]c2-c2ccc(O)cc2)CC1` [Compound A15]: the IC50 against Cdk4/cyclin D1 was under 100 nM; on Cdc2/cyclin B it was under 10 nM; at Cdk2/cyclin E, under 100 nM.

For `CC(C)N1CCN(CCOc2ccc(-c3n[nH]c4c3C(=O)c3c(NC(=O)NN5CCOCC5)cccc3-4)c(F)c2)CC1` [Compound A16], the IC50 on Cdk4/cyclin D1 was under 1000 nM; against Cdc2/cyclin B it was under 100 nM; on Cdk2/cyclin E it was under 100 nM.

As to `CN1CCN(NC(=O)Nc2cccc3c2C(=O)c2c-3n[nH]c2-c2ccc(OCCn3cccn3)cc2)CC1` [Compound A17], the IC50 at Cdk4/cyclin D1 is under 100 nM; on Cdc2/cyclin B it was under 10 nM; on Cdk2/cyclin E it was under 100 nM.

Consider `Cc1cc(-c2[nH]nc3c2C(=O)c2c(NC(=O)NN4CCN(C)CC4)cccc2-3)ccc1OCCN1CCN(C(C)C)CC1` [Compound A18], for which the IC50 against Cdk4/cyclin D1, against Cdc2/cyclin B and at Cdk2/cyclin E was under 100 nM throughout.

In the case of `Cc1cc(OCCN2CCN(C(C)C)CC2)ccc1-c1[nH]nc2c1C(=O)c1c(NC(=O)NN3CCN(C)CC3)cccc1-2` [Compound A19], the IC50 at Cdk4/cyclin D1 was under 1000 nM; on Cdc2/cyclin B it was under 100 nM; on Cdk2/cyclin E, under 100 nM.

In the case of `CC(C)N1CCN(CCCOc2ccc(-c3[nH]nc4c3C(=O)c3c(NC(=O)NN5CCOCC5)cccc3-4)cc2)CC1` [Compound A20], the concentration for half-maximal inhibition (IC50) against Cdk4/cyclin D1 is under 100 nM; on Cdc2/cyclin B, under 10 nM; against Cdk2/cyclin E, under 10 nM.

Consider `Cc1cc(OCCCN2CCN(C(C)C)CC2)ccc1-c1[nH]nc2c1C(=O)c1c(NC(=O)NN3CCOCC3)cccc1-2` [Compound A21], for which the IC50 at Cdk4/cyclin D1 was under 1000 nM; against Cdc2/cyclin B, under 100 nM; on Cdk2/cyclin E, under 10 nM.

With `CC(C)N1CCN(CCOc2ccc(-c3n[nH]c4c3C(=O)c3c(NC(=O)NN5CCOCC5)cccc3-4)cc2F)CC1` [Compound A22], the IC50 on Cdk4/cyclin D1 was under 100 nM; against Cdc2/cyclin B it was under 100 nM; against Cdk2/cyclin E, under 10 nM.

Take `CC(C)N1CCN(NC(=O)Nc2cccc3c2C(=O)c2c-3n[nH]c2-c2ccc(OCCN3CCCC3)cc2)CC1` [Compound A23]: the values for the IC50 at Cdk4/cyclin D1, against Cdc2/cyclin B and on Cdk2/cyclin E were under 100 nM, under 100 nM and under 10 nM, respectively.

On to `O=C(Nc1cccc2c1C(=O)c1c(-c3ccc(CN4CCOCC4)cc3)n[nH]c1-2)NN1CCOCC1` [Compound A47], for which the IC50 against Cdc2/cyclin B and on Cdk2/cyclin E was under 100 nM throughout.

In the case of `CN1CCN(Cc2ccc(-c3n[nH]c4c3C(=O)c3c(NC(=O)NN5CCOCC5)cccc3-4)cc2)CC1` [Compound A49], the concentration for half-maximal inhibition (IC50) at Cdc2/cyclin B and against Cdk2/cyclin E was under 100 nM throughout.

The molecule `O=C(Nc1cccc2c1C(=O)c1c(-c3ccc(CN4CCCC4)cc3)n[nH]c1-2)NN1CCOCC1` [Compound A51] gave an IC50 against Cdk2/cyclin E of under 100 nM.

On to `COc1ccc(Cc2nc3c(c(C(C)C)nn3-c3c(Cl)cccc3Cl)c(=O)[nH]2)cc1` [Compound A67], for which the IC50 against Cdc2/cyclin B is under 100 nM; against Cdk2/cyclin E, under 10 nM.

In the case of `O=C(Nc1cccc2c1C(=O)c1c(-c3ccc(OCc4nnn[nH]4)cc3)n[nH]c1-2)NN1CCOCC1` [Compound A74], the IC50 against Cdc2/cyclin B and on Cdk2/cyclin E was under 100 nM each time.

`O=C(Nc1cccc2c1C(=O)c1c(-c3ccc(CN4CCN(c5ccccn5)CC4)cc3)n[nH]c1-2)NN1CCOCC1` [Compound A82] came in with an IC50 on Cdk2/cyclin E of under 100 nM.

For `O=C(Nc1cccc2c1C(=O)c1c(-c3ccc(CNC(CO)CO)cc3)n[nH]c1-2)NN1CCOCC1` [Compound B1], at Cdk2/cyclin E, the half-inhibitory concentration (IC50) is under 10 nM.

As for `O=C(Nc1cccc2c1C(=O)c1c(-c3ccc(CN(CCO)CCO)cc3)n[nH]c1-2)NN1CCOCC1` [Compound B2], the IC50 against Cdc2/cyclin B was under 10 nM; on Cdk2/cyclin E it was under 100 nM.

For `O=C(Nc1cccc2c1C(=O)c1c(-c3ccc(CN4CCN(CCO)CC4)cc3)n[nH]c1-2)NN1CCOCC1` [Compound B3], the IC50 on Cdc2/cyclin B was under 10 nM; against Cdk2/cyclin E it was under 100 nM.

Molecule `O=C(Nc1cccc2c1C(=O)c1c(-c3ccc(CNCCOCCO)cc3)n[nH]c1-2)NN1CCOCC1` [Compound B4] gave a half-maximal inhibitory concentration (IC50) against Cdk2/cyclin E of under 100 nM.

`O=C(Nc1cccc2c1C(=O)c1c(-c3ccc(CN4CCC(O)CC4)cc3)n[nH]c1-2)NN1CCOCC1` [Compound B5] registered an IC50 at Cdk2/cyclin E of under 100 nM.

For `O=C(Nc1cccc2c1C(=O)c1c(-c3ccc(CN4CCC[C@H]4CO)cc3)n[nH]c1-2)NN1CCOCC1` [Compound B6], the IC50 against Cdk2/cyclin E was under 100 nM.

Molecule `O=C(Nc1cccc2c1C(=O)c1c(-c3ccc(CN4CCN(c5cccc(C(F)(F)F)c5)CC4)cc3)n[nH]c1-2)NN1CCOCC1` [Compound B7] displayed an IC50 at Cdk2/cyclin E of under 100 nM.

`O=C(Nc1cccc2c1C(=O)c1c(-c3ccc(CN4CC[C@@H](O)C4)cc3)n[nH]c1-2)NN1CCOCC1` [Compound B8]: the IC50 at Cdc2/cyclin B was under 100 nM.

Molecule `CCOC(=O)C1CCN(Cc2ccc(-c3n[nH]c4c3C(=O)c3c(NC(=O)NN5CCOCC5)cccc3-4)cc2)CC1` [Compound B9] showed an IC50 on Cdc2/cyclin B of under 100 nM.

`O=C(Nc1cccc2c1C(=O)c1c(-c3ccc(CNCCO)cc3)n[nH]c1-2)NN1CCOCC1` [Compound B10] came in with an IC50 against Cdc2/cyclin B of under 100 nM.

`O=C(Nc1cccc2c1C(=O)c1c(-c3ccc(CNCC(O)CO)cc3)n[nH]c1-2)NN1CCOCC1` (stereo not shown) [Compound B11] showed an IC50 against Cdc2/cyclin B of under 100 nM.

Regarding `O=C(Nc1cccc2c1C(=O)c1c(-c3ccc(CNCc4cccnc4)cc3)n[nH]c1-2)NN1CCOCC1` [Compound B12], on Cdc2/cyclin B, the IC50 was under 100 nM.

`O=C(Nc1cccc2c1C(=O)c1c(-c3ccc(CNCc4ccccn4)cc3)n[nH]c1-2)NN1CCOCC1` [Compound B13] returned an IC50 at Cdc2/cyclin B of under 100 nM.
